Data from patent publication US20220331303A1, “USE OF AN OREXIN 2 RECEPTOR AGONIST FOR THE TREATMENT OF EXCESSIVE SLEEPINESS” (Takeda Pharmaceutical Company Limited, priority 2019, published 2022).
“Also recorded” adds a separate entry of the source.

Experiments:
[1] = system: sleep-deprived healthy volunteers; assay: Safety/tolerability of a single dose in sleep-deprived healthy adults; assay type: in vivo, human
Protocol: (§1) During the day before dosing on Day 1, participants were administered the KSS at scheduled timepoints. A practice MWT session was performed on Day 1 treatment period 1 (only once during the entire study) to familiarize subjects with the procedures. Study drug was administered in the clinic in the evening on Day 1 of each treatment period. Subjects underwent the MWT and KSS at specified timepoints after the start of the infusion. Subjects were required to stay awake between the MWT tests. Following completion of the IV infusion on Day 2, subjects underwent an additional MWT test. When the final MWT test and cognitive testing were completed, subjects were allowed to sleep (recovery sleep) for approximately 6 hours. PSG recording was collected during this time. Subjects were discharged from the unit after completion on Day 2 with continuing actigraphy upon discharge (to begin on Day −6 before the next treatment period). The interval between each subsequent treatment period was at least 7 days to ensure that the subject's circadian rhythm had returned to a normal cycle. Subject's vital signs, including BP, were monitored during the dosing and testing period. Blood samples for determination of Compound A plasma concentrations were collected at specified timepoints on Days 1 and 2 of each treatment period. Subjects completed the Columbia-Suicide Severity Rating Scale (C-SSRS) during screening, before study drug administration, and before discharge on Day 2 of each treatment period.
Safety endpoints: adverse events (AEs), physical examinations, vital signs, 12-lead electrocardiograms (ECGs), clinical laboratory evaluations (hematology, blood chemistry, and urinalysis), drug-liking visual analogue scale, and Profile of Mood States.

[2] = system: sleep-deprived healthy volunteers; assay: Karolinska Sleepiness Scale (KSS) in sleep-deprived healthy volunteers; assay type: in vivo, human
Protocol: as §1
Secondary endpoints: • PK parameters calculated from plasma concentrations of Compound A. • Scores for sleepiness on the Karolinska Sleepiness Scale (KSS).
The secondary efficacy endpoint was sleepiness/alertness as assessed by KSS at 14, 10, 6, and 2 hours predose (approximately between 7:45 AM to 7:45 PM); 2, 2.75, 4.75, 6.75, and 8.75 hours post infusion start (approximately between mid-night to 7 AM in the morning); and at 1.75 hours post infusion end. A higher value indicates more sleepiness, a lower value indicates more alertness. Prior to infusion, there were no statistically significant differences at any time point of observation in KSS score for Compound A 44 and 112 mg treatments when compared to placebo. […] On the average, for modafinil and Compound A 44 and 112 mg, there were about 1.6 to 3.7 points increase in the KSS postdose/the infusion start, relative to that prior to dosing during the daytime. However, for placebo, the increase in the average KSS is 4.9.

[3] = Compound A 44 mg, 1.75 HOURS POST INFUSION END
[4] = Compound A 44 mg, 2 HOURS PREDOSE
[5] = Compound A 44 mg, 2.75 HOURS POST INFUSION START
[6] = Compound A 44 mg, 4.75 HOURS POST INFUSION START
[7] = Compound A 44 mg, 6 HOURS PREDOSE
[8] = Compound A 44 mg, 6.75 HOURS POST INFUSION START
[9] = Compound A 44 mg, 8.75 HOURS POST INFUSION START
[10] = Compound A 44 mg, 10 HOURS PREDOSE
[11] = Compound A 44 mg, 14 HOURS PREDOSE
[12] = Compound A 112 mg, 1.75 HOURS POST INFUSION END
[13] = Compound A 112 mg, 2 HOURS PREDOSE
[14] = Compound A 112 mg, 2.75 HOURS POST INFUSION START
[15] = Compound A 112 mg, 4.75 HOURS POST INFUSION START
[16] = Compound A 112 mg, 6 HOURS PREDOSE
[17] = Compound A 112 mg, 6.75 HOURS POST INFUSION START
[18] = Compound A 112 mg, 8.75 HOURS POST INFUSION START
[19] = Compound A 112 mg, 10 HOURS PREDOSE
[20] = Compound A 112 mg, 14 HOURS PREDOSE
[21] = HD: Compound A 112 mg, 1.75 HOURS POST INFUSION END
[22] = HD: Compound A 112 mg, 2 HOURS PREDOSE
[23] = HD: Compound A 112 mg, 2.75 HOURS POST INFUSION START
[24] = HD: Compound A 112 mg, 4.75 HOURS POST INFUSION START
[25] = HD: Compound A 112 mg, 6 HOURS PREDOSE
[26] = HD: Compound A 112 mg, 6.75 HOURS POST INFUSION START
[27] = HD: Compound A 112 mg, 8.75 HOURS POST INFUSION START
[28] = HD: Compound A 112 mg, 10 HOURS PREDOSE
[29] = HD: Compound A 112 mg, 14 HOURS PREDOSE
[30] = HD: Compound A 112 mg, DELTA: AVERAGE POST - AVERAGE PRIOR
[31] = LD: Compound A 44 mg, 1.75 HOURS POST INFUSION END
[32] = LD: Compound A 44 mg, 2 HOURS PREDOSE
[33] = LD: Compound A 44 mg, 2.75 HOURS POST INFUSION START
[34] = LD: Compound A 44 mg, 4.75 HOURS POST INFUSION START
[35] = LD: Compound A 44 mg, 6 HOURS PREDOSE
[36] = LD: Compound A 44 mg, 6.75 HOURS POST INFUSION START
[37] = LD: Compound A 44 mg, 8.75 HOURS POST INFUSION START
[38] = LD: Compound A 44 mg, 10 HOURS PREDOSE
[39] = LD: Compound A 44 mg, 14 HOURS PREDOSE
[40] = LD: Compound A 44 mg, DELTA: AVERAGE POST - AVERAGE PRIOR

COC(=O)N1CCC[C@H](NS(C)(=O)=O)[C@@H]1CO[C@H]1CC[C@@H](c2ccccc2)CC1 [Compound A, methyl (2R,3S)-3-((methylsulfonyl)amino)-2-(((cis-4-phenylcyclohexyl)oxy)methyl)piperidine-1-carboxylate]
Effect on BP and pulse ([1]; Compound A 44 mg): minimal effect
Drug-related TEAE of liver function test increased, number of subjects ([1]; Compound A 112 mg, mild intensity): 1 subject
Serious adverse events (SAEs) ([1]; Compound A 44 and 112 mg treatments): no SAEs were observed
Changes in DBP versus Compound A plasma concentration ([1]; change from time-matched baseline): appeared to increase with increasing concentration
Tolerability ([1]; single dose 44 mg or 112 mg, slow infusion over 9 hours, healthy volunteers): well-tolerated with no major safety concerns; also recorded: well tolerated overall
Difference between average KSS score post and prior to infusion start, LS Mean (SE) ([2]; Compound A 44 mg): 3.68 (0.332)
KSS Max [2, 3]: 9
KSS Mean (SD) [2, 3]: 8.4 (0.86)
KSS Median [2, 3]: 9.0
KSS Min [2, 3]: 6
KSS Max [2, 4]: 9
KSS Mean (SD) [2, 4]: 4.0 (2.30)
KSS Median [2, 4]: 3.5
KSS Min [2, 4]: 1
KSS Max [2, 5]: 8
KSS Mean (SD) [2, 5]: 4.8 (1.92)
KSS Median [2, 5]: 4.5
KSS Min [2, 5]: 1
KSS Max [2, 6]: 9
KSS Mean (SD) [2, 6]: 6.4 (2.12)
KSS Median [2, 6]: 6.5
KSS Min [2, 6]: 2
KSS Max [2, 7]: 7
KSS Mean (SD) [2, 7]: 2.8 (1.59)
KSS Median [2, 7]: 2.5
KSS Min [2, 7]: 1
KSS Max [2, 8]: 9
KSS Mean (SD) [2, 8]: 7.8 (0.94)
KSS Median [2, 8]: 8.0
KSS Min [2, 8]: 6
KSS Max [2, 9]: 9
KSS Mean (SD) [2, 9]: 8.1 (1.00)
KSS Median [2, 9]: 8.0
KSS Min [2, 9]: 5
KSS Max [2, 10]: 7
KSS Mean (SD) [2, 10]: 2.8 (1.40)
KSS Median [2, 10]: 3.0
KSS Min [2, 10]: 1
KSS Max [2, 11]: 6
KSS Mean (SD) [2, 11]: 2.8 (1.15)
KSS Median [2, 11]: 3.0
KSS Min [2, 11]: 1
Difference between average KSS score post and prior to infusion start, LS Mean (SE) ([2]; Compound A 112 mg): 1.64 (0.332)
KSS Max [2, 12]: 9
KSS Mean (SD) [2, 12]: 8.0 (1.57)
KSS Median [2, 12]: 8.5
KSS Min [2, 12]: 3
KSS Max [2, 13]: 6
KSS Mean (SD) [2, 13]: 3.4 (1.76)
KSS Median [2, 13]: 3.0
KSS Min [2, 13]: 1
KSS Max [2, 14]: 8
KSS Mean (SD) [2, 14]: 3.2 (2.02)
KSS Median [2, 14]: 2.0
KSS Min [2, 14]: 1
KSS Max [2, 15]: 9
KSS Mean (SD) [2, 15]: 3.8 (1.82)
KSS Median [2, 15]: 3.0
KSS Min [2, 15]: 1
KSS Max [2, 16]: 4
KSS Mean (SD) [2, 16]: 2.5 (0.92)
KSS Median [2, 16]: 3.0
KSS Min [2, 16]: 1
KSS Max [2, 17]: 9
KSS Mean (SD) [2, 17]: 5.2 (1.72)
KSS Median [2, 17]: 5.0
KSS Min [2, 17]: 2
KSS Max [2, 18]: 9
KSS Mean (SD) [2, 18]: 6.1 (1.95)
KSS Median [2, 18]: 6.0
KSS Min [2, 18]: 3
KSS Max [2, 19]: 7
KSS Mean (SD) [2, 19]: 2.5 (1.47)
KSS Median [2, 19]: 2.0
KSS Min [2, 19]: 1
KSS Max [2, 20]: 7
KSS Mean (SD) [2, 20]: 3.3 (1.74)
KSS Median [2, 20]: 3.0
KSS Min [2, 20]: 1
KSS Sleepy/Alert LS Mean [2, 21]: 8.01
KSS Sleepy/Alert LS Mean Difference vs Placebo Estimate [2, 21]: −0.14
KSS Sleepy/Alert LS Mean [2, 22]: 3.46
KSS Sleepy/Alert LS Mean Difference vs Placebo Estimate [2, 22]: −0.44
KSS Sleepy/Alert LS Mean [2, 23]: 3.24
KSS Sleepy/Alert LS Mean Difference vs Placebo Estimate [2, 23]: −3.61
KSS Sleepy/Alert LS Mean [2, 24]: 3.85
KSS Sleepy/Alert LS Mean Difference vs Placebo Estimate [2, 24]: −4.30
KSS Sleepy/Alert LS Mean [2, 25]: 2.51
KSS Sleepy/Alert LS Mean Difference vs Placebo Estimate [2, 25]: −0.29
KSS Sleepy/Alert LS Mean [2, 26]: 5.18
KSS Sleepy/Alert LS Mean Difference vs Placebo Estimate [2, 26]: −3.32
KSS Sleepy/Alert LS Mean [2, 27]: 6.07
KSS Sleepy/Alert LS Mean Difference vs Placebo Estimate [2, 27]: −2.26
KSS Sleepy/Alert LS Mean [2, 28]: 2.51
KSS Sleepy/Alert LS Mean Difference vs Placebo Estimate [2, 28]: 0.01
KSS Sleepy/Alert LS Mean [2, 29]: 3.29
KSS Sleepy/Alert LS Mean Difference vs Placebo Estimate [2, 29]: 0.24
KSS Sleepy/Alert LS Mean ([2]; HD: Compound A 112 mg, AVERAGE POST INFUSION START (2.75, 4.75, 6.75 AND 8.75 HOURS)): 4.58
KSS Sleepy/Alert LS Mean ([2]; HD: Compound A 112 mg, AVERAGE PRIOR TO INFUSION START (14, 10, 6, 2 HOURS PREDOSE)): 2.95
KSS Sleepy/Alert LS Mean [2, 30]: 1.64
KSS Sleepy/Alert LS Mean Difference vs Placebo Estimate [2, 30]: −3.26
KSS Sleepy/Alert LS Mean [2, 31]: 8.46
KSS Sleepy/Alert LS Mean Difference vs Placebo Estimate [2, 31]: 0.31
KSS Sleepy/Alert LS Mean [2, 32]: 4.01
KSS Sleepy/Alert LS Mean Difference vs Placebo Estimate [2, 32]: 0.11
KSS Sleepy/Alert LS Mean [2, 33]: 4.85
KSS Sleepy/Alert LS Mean Difference vs Placebo Estimate [2, 33]: −2.00
KSS Sleepy/Alert LS Mean [2, 34]: 6.46
KSS Sleepy/Alert LS Mean Difference vs Placebo Estimate [2, 34]: −1.69
KSS Sleepy/Alert LS Mean [2, 35]: 2.79
KSS Sleepy/Alert LS Mean Difference vs Placebo Estimate [2, 35]: −0.01
KSS Sleepy/Alert LS Mean [2, 36]: 7.79
KSS Sleepy/Alert LS Mean Difference vs Placebo Estimate [2, 36]: −0.71
KSS Sleepy/Alert LS Mean [2, 37]: 8.07
KSS Sleepy/Alert LS Mean Difference vs Placebo Estimate [2, 37]: −0.26
KSS Sleepy/Alert LS Mean [2, 38]: 2.79
KSS Sleepy/Alert LS Mean Difference vs Placebo Estimate [2, 38]: 0.29
KSS Sleepy/Alert LS Mean [2, 39]: 2.85
KSS Sleepy/Alert LS Mean Difference vs Placebo Estimate [2, 39]: −0.20
KSS Sleepy/Alert LS Mean ([2]; LD: Compound A 44 mg, AVERAGE POST INFUSION START (2.75, 4.75, 6.75 AND 8.75 HOURS)): 6.79
KSS Sleepy/Alert LS Mean ([2]; LD: Compound A 44 mg, AVERAGE PRIOR TO INFUSION START (14, 10, 6, 2 HOURS PREDOSE)): 3.11
KSS Sleepy/Alert LS Mean [2, 40]: 3.68
KSS Sleepy/Alert LS Mean Difference vs Placebo Estimate [2, 40]: −1.22
